Experimental data as given in patent US20130136691A1, “GASTRIN […] PEPTIDE COMPOUNDS” (priority 2008, published 2013).

Columns and labels:
[1] = tested on: GRP receptor binding in T47D human breast cancer cells; assay: Effect of drug treatment on GRP receptor binding (177Lu-AMBA) and proliferation in T-47D cells; assay type: cell-based; conditions: T-47D, relative to untreated control
Source text: T-47D breast cancer cells (human metastatic mammary gland ductal adenocarcinoma isolated from pleural effusion, ER+, PR+) were obtained from the American Type Culture Collection.

[2] = tested on: GRP receptor binding in ZR-75-1 human breast cancer cells; assay: 4-hydroxytamoxifen effect on 177Lu-AMBA binding and proliferation in ZR-75-1 cells (2 to 12 days); assay type: cell-based; conditions: for % Change in Proliferation / % change in 177Lu-AMBA Uptake: ZR-75-1 cells
Method: Method: ZR-75-1 breast cancer cell line (human ductal carcinoma with estrogen receptor) was obtained from the American Type Culture Collection (ATCC).
ZR-75-1 cells were plated on Day 0 (40k/well 96-well PE Scintiplate). […] To determine the cell numbers and the proliferation, 100 uL of 10% CCK-F solution in DPBS (Molecular technologies) was added to the same plate, incubated for 30 min at 37° C. and the relative fluorescence (RFU) measured at 535 nm. Based on the cell numbers and the ^177Lu-binding, the Bmax (fmoles bound/million cells) was calculated.
ZR-75-1 breast cancer cell lines were cultured as described above.
(§1) The ZR-75-1 cells were seeded at 15K per well onto two 96-well scintiplates on the same day as 2 days study.

[3] = tested on: ZR-75-1 human breast cancer cells; assay: Glucose uptake (2-NBDG) in ZR-75-1 cells after 4-hydroxytamoxifen; assay type: cell-based; conditions: for % Change in 2-NBDG: ZR-75-1 cells
Method: For the glucose uptake study, a fluorescently labeled2-deoxyglucose derivative (2-NBDG) was used. […] The cell numbers were determined with CCK-F treatment as described above.
as §1

[4] = tested on: GRP receptor binding in PC-3 prostate cancer cells; assay: Effect of drug treatment on GRP receptor binding (177Lu-AMBA) and proliferation in PC-3 cells; conditions: PC-3
Method: (§2) RPMI 1640 supplemented with 20 mM HEPES, 0.1% BSA (w/v), 0.5 mM PMSF (AEBSF), bacitracin (50 mg/500 ml), pH 7.4.
(§3) Treatment: BT-474 cells were plated on Day 0 (see above); approximately 24-48 h after plating, treatment Days 1 and 2 (DT1, DT2), the medium was removed and replaced with fresh growth medium (control), or growth medium with the addition of lapatinib (0.1-1.0 μM). […] Incubations were stopped by the addition of 200 μL of ice-cold binding buffer. Plates were washed three more times with binding buffer, 140 μL of scintillation fluid was added to each well, the plates were sealed and analyzed on a Microp plate reader (Microbeta Trilux, Perkin-Elmer).
(§4) Treatment: BT-474 cells were plated on Day 0 and treated on Days 1 and 2 (DT1, DT2).

[5] = tested on: GRP receptor binding in BT-474 human breast cancer cells; assay: Effect of drug treatment on GRP receptor binding (177Lu-AMBA) and proliferation in BT-474 cells; conditions: BT-474; relative to untreated control; drug 0.1-1.0 μM (4-OH Tamoxifen 0.001-0.1 μM)
Method: Cells for binding experiments were plated on Day 0 at 5.6×10^4 cells/cm^2 in 96-well white/clear bottom microtiter plates (Falcon Optilux-I), or 96 well black/clear collagen I cellware plates (Beckton Dickinson Biocoat).
as §2, §3, §4

[6] = tested on: BT-474 tumor-bearing nude mice; conditions: 1 hr; + Tamoxifen/+ ES, day 14, n = 3; control 2.18 ± 0.63
Method: Female nude mice ([Ncr]-Foxn1) received hormone supplementation by administration of 17β-estradiol via 60 day time released pellets implanted s.c. (0.72 mg/60 Day release; 0.6 mg/kg; Innovative Research of America, Sarasota, Fla.). Four to seven days after beginning hormone treatment, the mice were xenografted with ten million BT-474 cells in Matrigel (1:1 with PBS) s.c. to the flank. The 1713 estradiol is required for tumor cell growth in this model.
Control mice received vehicle-only time release pellets (in addition to hormone support).

[7] = tested on: human PC-3 nude mouse model; assay type: in vivo; conditions: i.v.
Method: 10-50 μCi of the HPLC purified compounds were administered to each mouse by i.v. tail vein injection, n=4 per group. At 1 h, 1 and 7 days post injection, the mice were terminated and the organs and tissues were harvested. Radioactivity was assayed in a gamma counter. The data was expressed as percentage of the total administered radioactivity (% ID) for the urine combined with the bladder, as well as for the blood pool; and percentage of the total administered radioactivity per gram (% ID/g) for all the other tested organs.

[8] = tested on: GRP receptor binding in PC-3 prostate cancer cells; assay: Single plate assay: dasatinib effect on 177Lu-AMBA binding (Bmax) and proliferation (CCK-F) in PC-3 cells; assay type: cell-based; conditions: Homo sapiens, 100 nM Dasatinib, read-out: inhibition of growth (cell proliferation)
Method: The cells were plated on Day 0 (7.5k/well 96-well PE Scintiplate). […] To determine the cell numbers and the proliferation, 100 uL of 10% CCK-F solution in DPBS (Molecular technologies) was added to the same plate, incubated for 30 min at 37° C. and the relative fluorescence (RFU) measured at 535 nm. Base on the cell numbers and the ^177Lu-binding, the Bmax (fmoles bound/million cells) was calculated, and the results compared with the control.

human GRP-R = target: T1, human GRP-R (Homo sapiens, UniProt P30550); assay: Competition assay with 125I-BBN for GRP-R in PC3 cells (IC50); assay type: binding; conditions: competition with 125I-BBN
T1 construct: host or cells: PC3 / PC-3 human prostate cancer cells (intact, plated)
Method: To identify potential lead compounds, an in vitro assay that identifies compounds with high affinity for GRP-R was used.
PC3 (human prostate cancer cell line) were obtained from the American Type Culture Collection and cultured in RPMI 1640 (ATCC) in tissue culture flasks (Corning). This growth medium was supplemented with 10% heat inactivated FBS (Hyclone, SH30070.03), 10 mM HEPES (GibcoBRL, 15630-080), and antibiotic/antimycotic (GibcoBRL, 15240-062) for a final concentration of penicillin-streptomycin (100 units/mL), and fungizone (0.25 μg/mL). […] Cells for experiments were plated at a concentration of 2.0×10^4/well either in 96-well white/clear bottom microtiter plates (Falcon Optilux-I) or 96 well black/clear collagen I cellware plates (Beckton Dickinson Biocoat). Plates were used for binding studies on day 1 or 2 post-plating.
RPMI 1640 (ATCC) supplemented with 20 mM HEPES, 0.1% BSA (w/v), 0.5 mM PMSF (AEBSF), Bacitracin (50 mg/500 ml), pH 7.4. ^125I-BBN (carrier free, 2200 Ci/mmole) was obtained from Perkin-Elmer.
A 96-well plate assay was used to determine the IC50 of various compounds of the invention to inhibit binding of ^125I-BBN to human GRP-R. The following general procedure was followed:
All compounds tested were dissolved in binding buffer and appropriate dilutions were also done in binding buffer. PC3 cells (human prostate cancer cell line) for assay were plated at a concentration of 2.0×10^4/well either in 96-well white/clear bottomed microtiter plates (Falcon Optilux-I) or 96 well black/clear collagen I cellware plates (Beckton Dickinson Biocoat). Plates were used for binding studies on day 1 or 2 post-plating. The plates were checked for confluency (>90% confluent) prior to assay. […] These studies were conducted with an assay volume of 75 μl per well. Triplicate wells were used for each data point. After the addition of the appropriate solutions, plates were incubated for 1 h at 4° C. to prevent internalization of the ligand-receptor complex. Incubation was ended by the addition of 200 μl of ice-cold incubation buffer. Plates were washed 5 times and blotted dry. Radioactivity was detected using either the LKB CompuGamma counter or a microplate scintillation counter.
All of the PC3 studies were performed as described in Example XLIII using ^125I-BBN. Selection of compounds for the assay was based on linker subtype.
PC3 cell lines were obtained from ATCC(CRL-1435) and cultured in RPMI 1640 (ATCC) supplemented with 2 mM L-glutamine, 1.5 g/L Sodium bicarbonate, 10 mM HEPES and 10% FBS. […]
All compounds tested were dissolved in binding buffer and appropriate dilutions were also done in binding buffer. […] Radioactivity was detected using either a LKB CompuGamma counter or a microplate scintillation counter.

[9] = breast cancer (30% have HER2/neu, 30% treated respond); cited from earlier work
[10] = drug 0.1-1.0 μM (4-OH Tamoxifen 0.001-0.1 μM)
[11] = ZR-75-1, 1-100 nM, treatment on days 2 and 3

T1 sequence (P30550 whole entry): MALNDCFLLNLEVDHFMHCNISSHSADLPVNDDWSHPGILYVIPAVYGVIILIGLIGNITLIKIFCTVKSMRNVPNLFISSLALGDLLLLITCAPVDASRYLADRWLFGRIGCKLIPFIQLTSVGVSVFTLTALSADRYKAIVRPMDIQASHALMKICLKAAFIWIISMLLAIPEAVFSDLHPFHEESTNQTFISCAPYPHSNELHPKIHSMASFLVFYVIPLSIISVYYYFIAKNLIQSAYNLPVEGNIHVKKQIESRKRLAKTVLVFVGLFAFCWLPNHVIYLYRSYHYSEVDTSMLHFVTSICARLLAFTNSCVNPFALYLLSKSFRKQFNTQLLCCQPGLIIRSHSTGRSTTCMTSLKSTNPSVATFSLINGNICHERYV

CC/C(=C(\c1ccc(O)cc1)c1ccc(OCCN(C)C)cc1)c1ccccc1 [4-OH Tamoxifen]
decrease in 177Lu-AMBA binding (GRP receptor specific signal per cell) [1, 10]: up to 35%
inhibition of proliferation, long-term treatment ([2]; ZR-75-1, 100 nM everyday, by 12 day): 28%
177Lu-AMBA uptake, long-term treatment, in words ([2]; ZR-75-1, 100 nM, 2-12 days): significant reduction
cell proliferation, in words [2, 11]: little change
% Change in Proliferation ([2]; 100 nM, 5 days of treatment): −11.3 (±8.3) %
% change in 177Lu-AMBA Uptake ([2]; 100 nM, 5 days of treatment): −77.4 (+1.6) %
% Change in Proliferation ([2]; 100 nM, 12 days of treatment): −28.0 (±14.1) %
% change in 177Lu-AMBA Uptake ([2]; 100 nM, 12 days of treatment): −72.3 (±14.6) %
% Change in Proliferation ([2]; 2 days of treatment): −7.2 (±3.8%
% change in 177Lu-AMBA Uptake ([2]; 2 days of treatment): −65.9 (±9.7) %
2-NBDG uptake, long-term treatment, in words ([3]; ZR-75-1, 100 nM, 2-12 days): smaller changes
decrease in glycolysis (2-NBDG uptake) [3, 11]: ~20%
% Change in 2-NBDG ([3]; 100 nM, 5 days of treatment): −47.5%
% Change in 2-NBDG ([3]; 100 nM, 12 days of treatment): 14.5%
GRP receptor specific signal per cell (177Lu-AMBA binding) versus untreated controls, in words [4, 10]: no change
decrease in 177Lu-AMBA binding (GRP receptor specific signal per cell) [5]: up to 73%

CC/C(=C(\c1ccccc1)c1ccc(OCCN(C)C)cc1)c1ccccc1 [Tamoxifen]
177Lu-AMBA in Tumor (% ID/g) [6]: 0.70 ± 0.39 % ID/g

CC1(N(CC(=O)O)CC(=O)O)CN(CC(=O)O)[C@@H]2CCCC[C@H]2N(CC(=O)O)C1 [XX100]
Blood 7 d % ID (*72 h timepoint) ([7]; 177Lu complex, 72 h timepoint): 0.00 ± 0.00 % ID
Tumor 7 d % ID/g (*72 h timepoint) ([7]; 177Lu complex, 72 h timepoint): 0.01 ± 0.00 % ID/g
distribution of radioactivity (in words) ([7]; Lu-177 complexes, 1 h, 1 and 7 days): rapidly cleared from the body with little residual localization in any organs or tissue

Cc1nc(Nc2ncc(C(=O)Nc3c(C)cccc3Cl)s2)cc(N2CCN(CCO)CC2)n1 [dasatinib]
increase in 177Lu-AMBA binding (GRP receptor specific signal per cell) ([1]; drug 0.1-1.0 μM (gefitinib 0.1-10 μM)): up to 500%
inhibition at 0.1 µM [8]: ≤ 33%
increase in 177Lu-AMBA binding (GRP receptor specific signal per cell) ([4]; relative to untreated control, drug 0.1-1.0 μM): up to 250%

DO3A-Gly-Abz-4-Gln-Trp-Ala-Val-Gly-His-Phe-Leu-NH2 [Compound L300]
competition for GRP-R in PC3 cells (in words) (human GRP-R): high activity at the GRP-R

Herceptin
overall response [9]: 9%

N-[(3β,5β,12α)-3-[[[4,7,10-Tris(carboxymethyl)-1,4,7,10-tetraazacyclododec-1-yl]acetyl]amino]-glycyl-4-aminobenzoyl-L-glutaminyl-L-tryptophyl-L-alanyl-L-valyl-glycyl-L-histidyl-L-phenylalanyl-L-methioninamide [Compound L228]
competition for GRP-R in PC3 cells (in words) (human GRP-R): maintains GRP-R activity

N-[(3β,5β,12α)-3-[[[4,7,10-Tris(carboxymethyl)-1,4,7,10-tetraazacyclododec-1-yl]acetyl]amino]-glycyl-4-aminobenzoyl-L-glutaminyl-L-tryptophyl-L-alanyl-glycyl-L-histidyl-L-phenylalanyl-L-leucinamide [Compound L224]
competition for GRP-R in PC3 cells (in words) (human GRP-R): complete loss of binding

N-[(3β,5β,12α)-3-[[[4,7,10-Tris(carboxymethyl)-1,4,7,10-tetraazacyclododec-1-yl]acetyl]amino]-glycyl-4-aminobenzoyl-L-leucyl-L-tryptophyl-L-alanyl-L-valinyl-glycyl-L-serinyl-L-phenylalanyl-L-methioninamide [Compound L225]
competition for GRP-R in PC3 cells (in words) (human GRP-R): reduces competition at the GRP-R
